Results reported in PMC12040169 (PLOS Biology, 2025).

Assay: in vitro
Conditions: human, hela cells

SMILES	viability at 28.5 h, 10 µM (% viability)	other results
OCC(O)/C=N/Nc1nc(Nc2ccccc2)nc(N2CCCCC2)n1 (centres unmarked) [CBK262042]	107%	
COc1ccc(CCNC(=O)CN2CCCC2Cn2cncn2)cc1 (centres unmarked) [CBK304567]	115%	
C[C@]1(CO)[C@H]2Cc3sc(-c4ccccc4)nc3[C@@H](CC(=O)O)[C@]2(C)CC[C@H]1O [CBK289572]	84.5%	
Cc1ccc(CCC(=O)Nc2nc3c(cc2C#N)CCC3)o1 [CBK306366]	67.1%	
Cc1c(C(C)NCC2CCCC2O)cnn1-c1ccc(C#N)cc1 (centres unmarked) [CBK304019]	94.5%	
O=S(=O)(Nc1nnn[nH]1)c1ccc(-c2ccccn2)s1 [CBK062589]	106%	
C=CCC(NCc1ccccc1)c1ccc(C(=O)O)o1 (centres unmarked) [CBK286591]	84.1%	
CC1CCCC(C)N1C(=O)Cn1ncn2c(cc3ccsc32)c1=O (centres unmarked) [CBK284191]	110%	
COc1ccc(/C=C(/NC(=O)/C=C/c2ccccc2)C(=O)O)cc1 [CBK264996]	94.8%	
Cc1cnc(CNC(=O)N2CCN(Cc3ccccc3)CC2)cn1 [CBK155627]	99.3%	
CC[C@H]1CN(C(=O)NC(C)C)CC[C@H]1CC(=O)NCc1ccc2c(c1)OCO2 [CBK288775]	97.9%	
CN(C(=O)c1cccs1)c1ccc(Oc2ncc(C(F)(F)F)cc2Cl)cc1 [CBK161654]	89.6%	
O=C(c1cc(F)cc(F)c1)N1CC[C@@H](c2ccccc2)[C@H](O)C1 [CBK283715]	79.1%	
O=[N+]([O-])c1ccc(Cl)cc1CN1CCN(c2ccccc2)CC1 [CBK261556]		viability at 28.5 h, 10 µM (% viability, bulk resorufin, single well): 89.3%
CCc1nc(CN2CCN(c3ccc4nc(C)nn4n3)CC2)cs1 [CBK306285]	89.1%	
COc1ccc(C(C)C)cc1-c1nccnc1NCc1ccc(S(C)(=O)=O)cc1 [CBK036903]	92.5%	
OCC1CCCN1c1nccnc1-c1cccnc1 (centres unmarked) [CBK089049]	101%	
Nc1cc(O)n(Cc2ccco2)c(=S)n1 [CBK006010]	99.9%	
CC(Oc1ccc(Cl)cc1)C(=O)Nc1ncccn1 (centres unmarked) [CBK288206]	96.5%	
CC(C(=O)NC1(C#N)CCCCC1)N1CCOC(Cn2cncn2)C1 (centres unmarked) [CBK305359]	101%	
O=C(N/N=C/c1ccc([N+](=O)[O-])cc1)c1ccccc1Cl [CBK261775]	88.7%	
O=C(CC1(O)C(=O)N(Cc2ccccc2)c2ccccc21)c1cc2ccccc2oc1=O (centres unmarked) [CBK293963]	106%	
Cc1cc(C(=O)Nc2ccccc2C(=O)O)ccc1NC(=O)CC(C)C [CBK263616]	101%	

SMILES	viability at 28.5 h, 10 µM (% viability)	other results
Cc1nc(C)n(C2CN(S(=O)(=O)c3ccc4scnc4c3)C2)n1 [CBK305889]	95.6%	
O=c1[nH]c2ccccc2n1C1CCN(S(=O)(=O)c2ccc(OC(F)(F)F)cc2)CC1 [CBK149690]	93.8%	
CCOC(=O)C(NC(=O)CC)(Nc1cc(C)on1)C(F)(F)F (centres unmarked) [CBK025721]	117%	
Cc1cc(CN2CCN(S(=O)(=O)c3ccc(C(F)(F)F)cc3Cl)CC2)cc(C)c1O [CBK063074]	103%	
CC(C)Cn1cnc2c(Cl)nc3ccccc3c21 [CBK017530]	86.4%	
COc1cc(OC)c(OC)cc1CN1CCN(Cc2ccco2)CC1 [CBK074509G]	92.9%	
COc1ccc(Cc2n[nH]c(=O)n2-c2ccccc2)cc1 [CBK000112]	107%	
COc1cc(CNc2cc(-c3ccccc3N(C)C)ncn2)cc(OC)c1OC [CBK037123]	93.1%	
CC(N)Cc1cn(C)c2ccccc12 (centres unmarked) [CBK012030C]		viability at 28.5 h, 10 µM: 83.8%
O=C(c1ccco1)N1CCN(c2ccc(-c3cccc4cccnc34)cn2)CC1 [CBK037640]	72.4%	
N=c1n(CCN2CCCCC2)c2ccccc2n1CC(O)c1cccs1 (centres unmarked) [CBK262908C]	94.9%	
Cc1cc(Cl)c(S(=O)(=O)Nc2ccc(Oc3ccccc3)cc2)cc1OCC(N)=O [CBK266583]	99.8%	
CCOC(=O)/C(=N/O)C(=O)c1c[nH]c2ccccc12 [CBK260979]	96%	
O=C(COc1ccc(F)cc1F)NNC(=S)NC1CCCCC1 [CBK266859]	82.2%	
COc1ccc(-c2cc(C(=O)N[C@H]3CCN(Cc4ccccc4)C3)cnc2-c2ccccc2)cn1 [CBK037605]	93.9%	
CC1(C)CC(=O)C=C(C(=O)NCc2cccs2)O1 [CBK153292]	97.5%	
O=C(O)[C@@H]1CCCN1C(=O)CCn1nnc2ccccc2c1=O [CBK286765]	83.6%	
O=C(O)c1cccc(Nc2nc3ccccc3nc2NS(=O)(=O)c2ccc(Br)cc2)c1 [CBK296113]	111%	
O=C(O)c1sccc1S(=O)(=O)NCc1ccc(COCC(F)(F)F)cc1 [CBK296706]	110%	
Fc1ccc2[nH]c3c(c2c1)CCN1C(c2ccccn2)N2CCC31CC2 (centres unmarked) [CBK284431]	101%	
COc1ccc(S(=O)(=O)NCc2ccccn2)cc1NC(C)=O [CBK269554]	103%	
COc1ccc(-c2cn3ccnc3c(Nc3ccc(N4CCOCC4)cc3)n2)cc1 [CBK066265]	98.5%	
CCOC(=O)C(C)n1nc(CC)n2c(cc3sc(C)cc32)c1=O (centres unmarked) [CBK284123]	86%	

SMILES	viability at 28.5 h, 10 µM (% viability)	other results
O=C1CO[C@H]2CN(Cc3ncc[nH]3)C[C@H]2N1Cc1ccncc1 [CBK289259]	108%	
c1ccc(Nc2nccc(C3CCCN(Cc4ccc5[nH]ccc5c4)C3)n2)nc1 (centres unmarked) [CBK286093]	85.3%	
COCC(C)NCc1cc(-c2ccc(Cl)cc2)c[nH]c1=O (centres unmarked) [CBK284726]	79%	
Cc1cc(C[C@@H]2CCC[C@H]2NCc2cc(Cl)ccc2O)on1 [CBK282997]	103%	
CCCCNC(=O)N1CCN(c2ccccc2Cl)CC1 [CBK043777]	106%	
CNC(=O)C1(Cc2ccc(-c3cccc(C)c3)cc2)CCN(C(=O)C(C)(C)C)CC1 [CBK285755]	98.6%	
Cc1cc(C[C@@H]2CCC[C@H]2NCc2ccncc2)on1 [CBK284934]	98.6%	
O=C(Nc1cc(Br)ccc1O)c1cnn2c(C(F)(F)F)cc(-c3cccs3)nc12 [CBK268190]	96%	
Nc1ncnc2c1C(c1ccc(Cl)cc1)c1c(ccc3ccccc13)O2 (centres unmarked) [CBK263938]	101%	
O=C(CSc1nc2ccccc2o1)N1c2ccccc2Sc2ccccc21 [CBK221524]	97.7%	
CC(=O)Nc1ccc(NC(=O)c2cc(-c3ccc(Cl)cc3Cl)nc3ccccc23)cc1 [CBK265080]	80.8%	
O=C1OC(c2ccco2)=N/C1=C/c1ccccc1OC(=O)c1ccco1 [CBK263980]	103%	
CN(Cc1ccccc1)C(C#N)c1c[nH]c2ccccc12 (centres unmarked) [CBK087062]	95.3%	
COc1cc2ncnc(NCc3ccccc3)c2cc1OC [CBK287984]	79.7%	
O=C1Oc2nc3ccccc3cc2CN1C1CC1 [CBK282870]	87.9%	
c1ccc2c(c1)nc(N1CCOCC1)n2CCN1CCOCC1 [CBK269841]	99.6%	
c1ccc2c(c1)CC(Oc1cncc(N3CCNCC3)n1)C2 [CBK000242G]	106%	
O=C(NCCN1CCOCC1)N(c1ccccc1)c1ccccc1 [CBK270057]	92.8%	
CCN1CCC(CC(=O)NCCn2ccnc2C)CC1 [CBK281984]	108%	
Cc1c(C(=O)O)ccc2c1N[C@@H](c1ccc(OCC#N)cc1)C1CC=CC21 (some centres unmarked) [CBK287124]	89.2%	
O=C(NCc1ccccn1)C1CCN(S(=O)(=O)c2ccc(Cl)cc2)CC1 [CBK264959]	90.2%	
COc1ccc(N2C(=O)CSC23C(=O)Nc2ccc(Br)cc23)cc1 (centres unmarked) [CBK093454]	96.6%	
CCOC(=O)Cc1nc2cc([N+](=O)[O-])ccc2oc1=O [CBK015603]	98%	

SMILES	viability at 28.5 h, 10 µM (% viability)	other results
CCCN1CCN(c2ncnc3scc(C4COc5ccccc5O4)c23)CC1 (centres unmarked) [CBK266590]	102%	
O=C(Nc1cccc(OCc2ccccc2)c1)c1cnc(-c2ccc(Cl)cc2)c(-c2ccco2)c1 [CBK037429]	93.9%	
CCOc1ccccc1NC(=O)NCCSCc1ccco1 [CBK057501]	94.5%	
CSc1ccccc1CNC(=O)c1cc(Br)cnc1N(C)C(C)=O [CBK076478]	106%	
Nc1nc(OCCn2cccc2)cnc1-c1ccsc1 [CBK145162]	92.1%	
Cc1cc2c(N3CCCC3)nc(N3CCCC3)nc2n1C [CBK016633C]	101%	
Cc1cccc(NC(=O)CC(C(=O)O)N2CCOCC2)c1 (centres unmarked) [CBK266925]	96.3%	
O=C(NCc1sccc1Cl)Nc1cccc(Cl)c1 [CBK057110]	92.4%	
NS(=O)(=O)c1ccc(NC(=S)N2CCN(CCc3ccccc3)CC2)cc1 [CBK268133]	97.6%	
Cc1ccc2cc(C)c3nn(CC(=O)NC4CC4)c(=O)n3c2c1C [CBK283822]	83.8%	
Nc1ncnc(NCCc2c[nH]c3ccccc23)c1[N+](=O)[O-] [CBK267283]	29.6%	
O=C(O)C1CCCCC1C(=O)NCc1cccnc1 (centres unmarked) [CBK261695]	91.7%	
CCCc1ccc(S(=O)(=O)Nc2nc(C)c(C(=O)O)s2)cc1 [CBK045555]	88.3%	
COc1ccc(C(=O)OC(C)(C)C)c(-c2nccnc2N[C@@H](C)c2ccccc2)c1 [CBK036994]	94.2%	
CC(=O)N1CCN([C@H]2[C@@H]3OC[C@@H](O3)[C@@H](NCC3CCCCC3)[C@@H]2O)CC1 [CBK288809]	90.6%	
COc1ccc(-c2nc3ccccn3c2CN2CCC(C(=O)O)CC2)cc1OC [CBK287063]	89.9%	
O=C(Cc1ccc(F)cc1F)Nc1ccc2cc[nH]c2c1 [CBK160044]	102%	
O=[N+]([O-])c1ccc(CSc2nnc(-c3cccnc3)n2Cc2ccco2)cc1 [CBK264580]	106%	
CNC(=O)C1(Cc2ccc(-c3ccccc3)cc2)CCN(C(=O)c2ccccc2OC)CC1 [CBK285767]	85.9%	
CCOC(=O)N/N=C(/C)C(C)(C)C [CBK016460]	105%	
